# Laboratory results from patent US20050148034A1, “Methods for identification of modulators of angiogenesis, compounds discovered thereby, and methods of treatment using the compounds” (priority 2002, published 2005).
# How the values were obtained:
# [1] = test system: embryonic-like stem cells derived from placenta; experiment: Marker expression of cultured embryonic-like stem cells (staining score, Table 2); format: cell-based, human; design: key to SMC-specific Myosin HC / GFAP / CD34+ / CD45+: −: no staining; +/−: <20% staining; +: 20-50% staining; ++: 50-75% staining; +++: >75% staining; conditions: for CD34+ / CD45+ / GFAP / Nestin / SMC-specific Myosin HC: placental conditioned media, fourteen days of culture; for numbers of cells expressing CD34, CD45 and smooth muscle cell (SMC)-specific myosin heavy chain / numbers of cells expressing nestin and glial fibrillary acidic protein (GFAP): summary of Table 2
# Experimental: The following experiments evaluated the effects of Thalomid™, Actimid™ and Revimid™ on the morphological differentiation of embryonic-like stem cells derived from placenta. The morphological differentiation of cultured embryonic-like stem cells was evaluated after fourteen days of culture in the presence of placental conditioned medium and with DMSO (control), EGCF, Thalomid™, Actimid™ or Revimid™.
# Embryonic-like stem cells were isolated from placenta as described above in Section 5.4. The embryonic-like stem cells were cultured using the culture conditions described above.
# (§1) The cells were scored for the expression of CD34 (a marker of early hematopoietic progenitor cells; also an endothelial cell marker), CD45 (a marker of all hematopoietic cells except erythrocytes), CD105 (a marker of proliferating endothelial cells), smooth muscle cell (SMC)-specific myosin heavy chain, nestin ([…]), and glial fibrillary acidic protein (GFAP). Ratios of CD34 cells/TNC (Total Number of Cells), CD45 cells/TNC and CD105 cells/TNC were also determined.
# In Table 2, the scoring was as follows: • −: no staining; +/−: <20% staining+: 20-50% staining; ++: 50-75% staining; +++: >75% staining.
# [2] = test system: embryonic-like stem cells derived from placenta; experiment: Immunostaining for CD34, CD45 and CD105 in cultured placental stem cells (ratios to TNC, Table 3); format: cell-based, human; conditions: for CD34/TNC / CD45/TNC / CD105/TNC: placental conditioned media, 1 μg/ml, 14 days in culture; for numbers of cells expressing CD34, CD45 and CD 105: summary of Table 3
# Experimental: as §1
# In another experiment, the results of which are summarized in Table 3, embryonic-like stem cells derived from placenta were cultured, using the conditions described in the umbilical vessel ring assay described above, in the presence of placenta-conditioned medium with DMSO (negative control), Thalomid™, Actimid™ or Revimid™. After 14 days in culture, the cells were then immunostained for expression of CD34+, CD45+ and CD 105+.
# [3] = test system: embryonic-like stem cells derived from placenta; experiment: Total vessel area/field and branching/bifurcation of cultured placental embryonic-like stem cells (Table 4); format: cell-based, human; design: key to Branching/Bifurcation (+/−): +: a branch or bifurcation was observed; −: no branch or bifurcation was observed; conditions: for branching and/or bifurcation exhibited by the cells / total vessel area/field covered by the cells: summary of Table 4
# Experimental: In another experiment, the results of which are summarized in Table 4, embryonic-like stem cells derived from placenta were cultured, using the culture conditions described above, and in the presence of EGCF, DMSO, Thalomid™, Actimid™ or Revimid™.
# A “+” means that a branch or bifurcation was observed and a “−” means that no branch or bifurcation was observed. […] See also FIGS. 3A, 3B
# rat aortic rings = experiment: Rat aortic angiogenesis assay; format: cell-based, Sprague Dawley rats; conditions: for mean microvessel growth (% of control): without microsomes
# Experimental: Twelve well tissue culture grade plates were covered with 250 μl of Matrigel and allowed to gel for 30-45 min at 370 C, 5% Co2. Thoracic aortas were excised from eight to ten week old male Sprague Dawley rats and the fibroadipose tissue was removed. The aortas were sectioned into 1 mm long sections, rinsed eight times with EGM-2 (Clonetics Corp), placed on the Matrigel coated wells, covered with additional 250 μl Matrigel, and allowed to gel for 30-45 min at 370 C. The rings were cultured for 24 hours in 2 ml of EGM-2. After 24 hours, recombinant murine endostatin was reconstituted in EBM and added as a single treatment on day 1. Thalidomide was added at different concentrations (1 μg/ml, 5 μg/ml, 10 μg/ml, 50 μg/ml and 100 μg/ml) in the presence or absence of rabbit microsomes as noted in the Table 5. Aortic rings were photographed on days.
# [4] = test system: human umbilical cord vessel rings; experiment: Human angiogenesis assay (umbilical artery vessel rings in Matrigel); format: cell-based; conditions: for Microvessel Growth (% Inhibition): vs 0.1% DMSO, three weeks, average of two rings
# Excerpt: Fresh human umbilical cords were collected by trained medical personnel under fill donor informed consent from local hospitals. The cords were transported and treated within three hours. Umbilical cords and vessel lumens were rinsed with chilled basal nutrient medium. The artery was removed from the cord using mechanical means, forceps and small surgical scissors in an aseptic field. The vessel was cleaned of connective tissue and vessel rings were cut cross-wise in a length of 1 mm. The rings were placed into EGM-2 medium (Clonetics Corp.) in a 50 ml conical bottom tube and stored at 4° C. Six-well tissue culture plates were covered with […] of Matrigel and allowed to gel for 30-45 min at 37° C., under 5% CO2. The vessel rings were rinsed in EGM-2 medium and placed on the Matrigel-coated wells, covered with additional 250 μl Matrigel, and allowed to gel for 30-45 min at 37° C. (see FIG. 6). The vessels were cultured for 24 hours in 4 ml of EGM-2 to allow the tissue to adapt to its new environment. After 24 hours incubation, the rings were treated either with 0.1% DMSO as control, or different concentrations of compounds (thalidomide or CC4047). Culture medium was changed twice per week for total of three weeks.
# The effects of compounds on cultured vessel rings were compared with the effect of DMSO on vessel rings. The results were analyzed using Image-Pro® Plus software (MediaCybernetics, Inc. Carlsbad, Calif.).
# These experiments were done in duplicates and the results are the average of two rings in same experiment. A different concentration of Fumagillin is used as positive control in this experiment.
# [5] = test system: human umbilical cord blood vessel rings; experiment: Umbilical cord blood vessel ring angiogenesis assay (validation with known modulators); format: cell-based
# Experimental: Blood vessels, approximately 1-2 mm in diameter and 1-2 cm in length, were excised from human umbilical cord within 12 hours of birth. Both arterial and venous tissue were harvested and maintained separately. The vessels were placed in DMEM containing 2.5 μg/ml of fungizone and cut into 1-2 mm length fragments using fine dissecting forceps and iridectomy scissors. Vessel fragments were freed of residual clots and soaked in DMEM before use. Dissecting and sectioning of vessels were performed with the aid of a surgical microscope. Similar angiogenic responses were obtained from blood vessels of venular and arterial origin but for each assay, vessel fragments from only one vessel were used. See FIG. 6 for a graphic depiction of the assay setu.
# Assays were performed in petri dishes (10 to 25 cm^2) or 6-well culture plates (Costar, Cambridge, Mass.), which were prepared by pre-coating with either 0.1% gelatin (Sigma, St. Louis, Mo.) or MATRIGEL® (BD Biosciences) to form a matrix. Following the coating of the plates, 50 μl of human cord blood plasma in 5 mL of DMEM were added to each dish/well to form a surface film over the matrix. The film was allowed to set at 37° C. for 90 minutes, after which it was removed, leaving a thin film in each dish/well. Vessel ring segments were then positioned at central locations within the plate or dish. Petri dishes were divided into quarters, and vessel ring segments were placed in the center of each of the quadrants. In the case of 6-well culture plates, a vessel ring segment was placed in each of the wells. Vessel ring segments generally adhered to the coated matrix within 12 hours, allowing for the addition of media without risk of detachment due to buoyancy. […]
# Test compounds were administered at the beginning of culture, once the adherent stem cells were selected, or once the vessel rings are determined to have adhered to the matrix. Each test compound is evaluated at various concentrations to enable generation of a dose response analysis. […]
# Vessel outgrowth was scored as a quantitative comparison to the positive and negative controls, using the following notations: − negative; +/− minimally above negative control; + low level of outgrowth; ++ moderate level of outgrowth; +++ high level of outgrowth; ++++ positive control level of outgrowth. Vessel outgrowth was also scored morphometrically as the maximal distance of vessel sprout growth in microns from the vessel ring, and as the total area of endothelial cell coverage (ECA)/area of vessel ring (VRA).
# Following culture for 14-21 days, as described above, angiogenesis was quantified and compared with control cultures. […]
Compound,CD34+ ([1]; 1 μg/mL),CD45+ ([1]; 1 μg/mL),GFAP ([1]; 1 μg/mL),Nestin ([1]; 1 μg/mL),SMC-specific Myosin HC ([1]; 1 μg/mL),CD34+ ([1]; 10 μg/mL),CD45+ ([1]; 10 μg/mL),GFAP ([1]; 10 μg/mL),Nestin ([1]; 10 μg/mL),SMC-specific Myosin HC ([1]; 10 μg/mL),"numbers of cells expressing CD34, CD45 and smooth muscle cell (SMC)-specific myosin heavy chain [1]",numbers of cells expressing nestin and glial fibrillary acidic protein (GFAP) [1],CD34/TNC [2],CD45/TNC [2],CD105/TNC [2],"numbers of cells expressing CD34, CD45 and CD 105 [2]",Branching/Bifurcation (+/−) ([3]; 1 μg/ml),Total Vessel Area/Field (% Coverage) ([3]; 1 μg/ml),Branching/Bifurcation (+/−) ([3]; 10 μg/ml),inhibition of angiogenesis ([5]; 100 μg/ml),further results
"Nc1cccc2c1C(=O)N(C1CCC(=O)NC1=O)C2=O (stereo not shown) [Actimid, 4-(Amino)-2-(2,6-dioxo(3-piperidyl))-isoindoline-1,3-dione]",−,−,−,++ (50-75% staining),−,−,−,+ (20-50% staining),+++ (>75% staining),−,decreased,increased,0.04,0.94,26.3,decrease,−,11.3 +/− 2.8 % Coverage,−,,Total Vessel Area/Field (% Coverage) ([3]; 10 μg/ml): 6.7 +/− 4.1 % Coverage; branching and/or bifurcation exhibited by the cells [3]: decreases the branching and/or bifurcation exhibited by the cells; total vessel area/field covered by the cells [3]: decrease in the total vessel area/field covered by the cells; mean microvessel growth (% of control) (rat aortic rings; 10 μg/ml): 14.2 % of control; mean microvessel growth (% of control) (rat aortic rings; 100 μg/ml): 0.00 % of control; need of rabbit microsomes for inhibition of vessel formation (rat aortic rings; summary of Table 5): did not require microsomes for inhibition of vessel formation; Microvessel Growth (% Inhibition) ([4]; 0..1 μM): 50.1 % Inhibition; Microvessel Growth (% Inhibition) ([4]; 1 μM): 85 % Inhibition; Microvessel Growth (% Inhibition) ([4]; 10 μM): 100 % Inhibition; formation of microvessel outgrowth ([4]; compared with DMSO treated samples): inhibited the formation of microvessel outgrowth in a dose dependent manner
heparin,,,,,,,,,,,,,,,,,,,,small but significant inhibition of angiogenesis,
Cc1ccc(C(=O)Nc2ccc(S(=O)(=O)O)c3cc(S(=O)(=O)O)cc(S(=O)(=O)O)c23)cc1NC(=O)c1cccc(NC(=O)Nc2cccc(C(=O)Nc3cc(C(=O)Nc4ccc(S(=O)(=O)O)c5cc(S(=O)(=O)O)cc(S(=O)(=O)O)c45)ccc3C)c2)c1 [suramin],,,,,,,,,,,,,,,,,,,,virtually totally inhibited angiogenesis,inhibition of angiogenesis ([5]; 10 μg/ml): the inhibitory activity of this compound is lost
"Nc1cccc2c1CN(C1CCC(=O)NC1=O)C2=O (stereo not shown) [Revimid, 3-(4-amino-1-oxo-1,3-dihydro-isoindol-2-yl)-piperidine-2,6-dione]",−,−,+ (20-50% staining),+ (20-50% staining),−,−,−,+++ (>75% staining),++ (50-75% staining),−,decreased,increased,.22,1.71,17.3,decrease,−,13.5 +/− 7.7 % Coverage,−,,Total Vessel Area/Field (% Coverage) ([3]; 10 μg/ml): 12.1 +/− 7.4 % Coverage; branching and/or bifurcation exhibited by the cells [3]: decreases the branching and/or bifurcation exhibited by the cells; total vessel area/field covered by the cells [3]: decrease in the total vessel area/field covered by the cells
low molecular weight heparin,,,,,,,,,,,,,,,,,,,,small but significant inhibition of angiogenesis,
